One substance from PMC12767106, “In Situ Assembly of Transformable Monopeptide on Activated Neutrophils Attenuates NETs‐Induced Hepatocellular Carcinoma Metastasis by Disrupting NE Nuclear Translocation” (Advanced Science, 2025) can be followed below.

The subject of one experiment is activated neutrophils. Put plainly: NETs formation (MPO-DNA ELISA, CitH3 immunofluorescence and Western blot). Format: cell-based, mouse. The following applies: PMA-activated neutrophils, 50 µM, 4 h, CitH3 staining and Western blot. As for the experimental part: (§1) Submitted to Advanced Science
Neutrophil Elastase Activity Assay
To evaluate the distribution of active NE on the surface and inside of neutrophils, we used a kit (AkrivisBio’s Neutrophil Elastase Activity Assay, MA-0156), seeded neutrophils in confocal microscopy dishes, and then treated them with NFTP-NPs (50 µM, medium: DMSO = 99:1, v/v), FTP-NPs (50 µM, medium: DMSO = 99:1, v/v), PMA+NFTP-NPs (50 µM, medium: DMSO = 99:1, v/v), and PMA+FTP-NPs (50 µM, medium: DMSO = 99:1, v/v) at 37°C. Because the Neutrophil elastase in the kit cleaves a concrete fluorogenic substrate which releases AFC, providing intense fluorescence, 50 μl of MeOSucc-AAPV-AFC mix (Assay Buffer: MeOSucc-AAPV-AFC = 48:2) was added at 4 h, and after incubation for 1 h, the samples were examined by CLSM (LSM980, Zeiss, Germany).
Quantitative analysis of NE activity […]
DMSO = 99:1, v/v) for 4 h to obtain the solution.35,36 Quantitative analysis was carried out by a NETosis Assay Kit (Cayman Chemical, USA).
Quantitative induction analysis of NETs in vitro […]
According to the manufacturer's instructions, MPO -DNA levels in cultured supernatant were analyzed by an ELISA kit (MEIMIAN, China).38 Briefly, samples were added to each well and incubated with anti -MPO and anti-DNA antibodies for 2 h at room temperature. […] The OD value w as then measured by a microplate […]
In general terms: ELISA stands for enzyme-linked immunosorbent assay.

In a further experiment the test system is Hepa1-6 cells. Put plainly: Cell proliferation (CCK-8) with medium from treated neutrophils. Format: cell-based, mouse. The following applies: CCK-8, medium from activated neutrophils treated with NPs; versus Control and NFTP-NPs groups. As for the experimental part: as §1
Freshly isolated neutrophils were stimulated with PBS, PMA, PMA+NFTP-NPs, PMA+FTP-NPs, and PMA+NEi for 4 h to stimulate NETs formation. Cells were then centrifuged at 480g for 10 minutes. The supernatant (NETs rich media) was then centrifuged at 18000g for 15 mins to form a pellet. The obtained pellet contained the mixture of chromatins and proteins, which was then resuspended in cell culture media to treat cancer cells, which was collected and respectively named as resting neutrophils, Control, NFTP-NPs, FTP-NPs, and NEi, then stored at -80◦C for further use.
Resting neutrophils (Neu)-treated, Control (Neu+PMA)-treated, NFTP-NPs (Neu+PMA+NFTP-NPs)-treated, FTP-NPs (Neu+PMA+FTP-NPs)-treated, and NEi (Neu+PMA+NEi)-treated Hepa1-6/luc cells and Hepa1-6/luc cells (2×10^3cells/well) were seeded on 96-well plates. Cell proliferation was assessed using the Cell Counting Kit-8 (Biosharp, China) following the manufacturer’s instructions. The final optical density (OD) value was measured daily for 3 consecutive days using a microplate reader at 450 nm (Tecan Infinite M200, Switzerland). Each condition was performed in triplicate. […]

With PpIX-GFFVLK-EAIPMSIPPEVK [FTP-NPs], the “formation of NETs” value in the experiment with activated neutrophils is recorded as “effectively inhibit the formation of NETs”. In the experiment with Hepa1-6 cells, the “proliferation rate of Hepa1-6 cells” value is given as “much lower”.
